Values joined by “and” are separate entries in the source; they are usually repeats but may differ in a detail not shown here. Equal entries are not always repeated.
Assays:
[1] = tested on: HT29 human colon cancer; test: Anti-HT29 human colon cancer in BALB/c (nu/nu) nude mice; assay type: in vivo; design: body weight of HT29-bearing nude mice / tumor volume of HT29-bearing nude mice / Tumor mass: unit not given here; settings: for body weight of HT29-bearing nude mice / tumor volume of HT29-bearing nude mice: Sc; for Inhibition rate: from average tumor mass vs model; for Tumor index: tumor mass/body weight
Experimental: Human resources Colon cancer cell line HT29 was cultured in the same condition as the experiment 4. […] Mice were randomly assigned into 7 groups: […] The body weight and the tumor volume were measured and recorded weekly. The tumor volume was calculated according to the formula below. […] The tumors were departed and weighed.

[2] = tested on: BGC823 human gastric adenocarcinoma; test: Anti-BGC823 human gastric adenocarcinoma in BALB/c (nu/nu) nude mice; assay type: in vivo; design: tumor volume of BGC823-bearing nude mice / Tumor mass: unit not given here; settings: for body weight of BGC823-bearing nude mice / tumor volume of BGC823-bearing nude mice: Sc; for body weight of BGC823-bearing nude mice: in g (unit assumed)
Experimental: Human resources gastric adenocarcinoma cell line BGC823 was cultured in the same condition as the experiment 4.
The body weight and the tumor volume were measured and recorded weekly. The tumor volume was calculated according to the formula below.
Tumors were departed and weighed. Tumor Index and inhibition rate were calculated as below: […]

[3] = tested on: HepG2 human heptoma; test: Anti-HepG2 human heptoma in BALB/c (nu/nu) nude mice; settings: for tumor volume of HepG2-bearing nude mice: Sc
Experimental: 70 male BALB/c (nu/nu) nude mice (18-20 g, License NO. SCXK (BJ) 2009-0017, National Institutes for Food and Drug Control.) were adaptively bred for one week, and then used in the following experiment.
Human resources hepatoma cell line HepG2 was cultured in RPMI-1640 medium containing 100 U/mL Penicillin and 100 μg/mL Streptomycin with 10% fetal bovine serum and maintained at 37° C. in a humidified atmosphere (5% CO2 and […]).
70 BALB/c (nu/nu) nude mice were adaptively bred for 1 week, HepG2 cells were inoculated subcutaneously into the back of nude mice, 1×10^7 cells per mouse. […] 3 days after inoculation, mice of every therapeutic group were all given the relevant compounds or drugs for 3 weeks, and others were given isodose physiological saline.
The body weight and the size of tumor were measured and recorded weekly. The tumor volume was calculated with the formula below:
tumor volume V=π/6×a×b^2 (a, b means the transverse and longitudinal length of tumor)
At the end of administration, mice were fastened for 8 hours, weighed the fasting body weight, dropped off eyeball to collect blood, centrifuged and collected serum for next experiment. The tumors were departed and weighed. Tumor Index and inhibition rate were calculated as below:
Tumor Index=Tumor mass (mg)/body weight of animal (g)
Inhibition rate=(Average tumor massControl group−Average tumor massadministration group)/Average tumor massControl group×100%
Mice in the model group were injected with sterile water (10 ml/kg BW), Sc. All the animals were treated at 9 am for 3 weeks.
Determination of body weights: Body weights of animals were weighed and recorded once a week.
Tumor measurement: The transverse and longitudinal lengths of tumor were measured with vernier caliper weekly.
End of the experiment: After mice being administrated for 3 weeks (21 days), the experiment was terminated.

[4] = tested on: MCF-7; test: MTT inhibition of tumor cells in vitro (Example 3); assay type: cell-based, Human; settings: 40 μg/mL, 48 hours
Experimental: (§1) Human resources tumor cell line […], […], HT29, MCF-7 and A875 were provided by Cancer Hospital, Chinese Academy of Medical Sciences.
(§2) Cells were passaged every 2 or 3 days, and all the experiments were carried out on exponentially growing cells.
(§3) All cells were cultured in a humidified atmosphere (5% CO2 and […]), and passaged every 2 or 3 days. Cells were harvested on exponentially growing phase, and cell suspension was prepared with 2×10^4 cells/mL, added with 100 μL per well of 96-well plates, and cultured for 24 h in incubator. 100 μL medium without cells was added per well as blank group.
(§4) Compound (1), (2), (3), (4), (7) or (8) was dissolved in DMSO respectively, and diluted with 1640 medium at a final concentration of 400 μg/mL, so as to that of the Cisplatin. Cells were divided into 9 groups, they were blank group, model group, Compound (1), (2), (3), (4), (7) and (8) groups, and Cisplatin group as the positive one, 6 wells per group.
(§5) Before drug administration, supernatant of each well was removed and fresh 1640 medium was added, 180 μL per well. Compounds and Cisplatin were added with 20 μL per well respectively at a final concentration of 40 μg/mL. Wells of blank and model groups were added with 0.5% DMSO, 20 μL per well. 48 hours later, 20 μL MTT was added per well and continued to culture for 4 hours, then the supernatant was replaced carefully and DMSO was added with 150 μL per well to end the experiment. The 96-well plates were shaken for 10 mins and read the absorbance at 490 nm. The Inhibition rate was calculated.
(§6) Inhibition rate=[(ODmodel−ODblank)−(ODdrugs−ODblank)]/(ODmodel−ODblank)×100%
(§7) The MTT experiment was repeated three times.

[5] = tested on: A875; test: MTT inhibition of tumor cells in vitro (Example 3); assay type: cell-based, Human; settings: 40 μg/mL, 48 hours
Experimental: as §1, §2, §3, §4, §5, §6, §7

[6] = tested on: HepG2; test: MTT inhibition of tumor cells in vitro (Example 3); assay type: cell-based, Human; settings: 40 μg/mL, 48 hours
[7] = tested on: BGC823; test: MTT inhibition of tumor cells in vitro (Example 3); assay type: cell-based, Human; settings: 40 μg/mL, 48 hours
Experimental: as §1, §2, §3, §4, §5, §6, §7

[8] = tested on: HT29; test: MTT inhibition of tumor cells in vitro (Example 3); assay type: cell-based, Human; settings: 40 μg/mL, 48 hours
Experimental: as §1, §2, §3, §4, §5, §6, §7

[9] = 1 W, mg/kg BW: total saponins 1.5, Compound 1, combination 1 & 19, PTX 20
[10] = 2 W, mg/kg BW: total saponins 1.5, Compound 1, combination 1 & 19, PTX 20
[11] = 3 W, mg/kg BW: total saponins 1.5, Compound 1, combination 1 & 19, PTX 20
[12] = HT29-bearing nude mice, after 3 weeks
[13] = 1 W, mg/kg BW: total saponins 1.5, Compound 1, combination 1 & 19, 5-FU 20
[14] = 2 W, mg/kg BW: total saponins 1.5, Compound 1, combination 1 & 19, 5-FU 20
[15] = 3 W, mg/kg BW: total saponins 1.5, Compound 1, combination 1 & 19, 5-FU 20

Row | Molecule | tumor volume of HT29-bearing nude mice [1, 9] | tumor volume of HT29-bearing nude mice [1, 10] | tumor volume of HT29-bearing nude mice [1, 11] | Inhibition rate [1, 12] [%] | Tumor index [1, 12] | Inhibition rate, MCF-7 [4] [%] | Inhibition rate, A875 [5] [%] | Inhibition rate, HepG2 [6] [%] | Inhibition rate, BGC823 [7] [%] | Inhibition rate, HT29 [8] [%] | also measured
1 | CC(=O)O[C@H]1C(=O)[C@@]2(C)[C@H]([C@H](OC(=O)c3ccccc3)[C@]3(O)C[C@H](OC(=O)[C@H](O)[C@@H](NC(=O)c4ccccc4)c4ccccc4)C(C)=C1C3(C)C)[C@]1(OC(C)=O)CO[C@@H]1C[C@@H]2O [PTX, Paclitaxel, reference compound] | 943.55 ± 516.62 | 996.66 ± 347.05 | 801.38 ± 259.34 | 60.81 | 0.06 ± 0.03 | – | – | – | – | – | body weight of HT29-bearing nude mice ([1]; 0 W, mg/kg BW: total saponins 1.5, Compound 1, combination 1 & 19, PTX 20): 20.60 ± 1.32; body weight of HT29-bearing nude mice [1, 9]: 20.30 ± 1.68; body weight of HT29-bearing nude mice [1, 10]: 19.80 ± 1.77; body weight of HT29-bearing nude mice [1, 11]: 19.20 ± 1.37
2 | sinocrassuloside VI [Compound (1)] | 1094.99 ± 678.00 | 907.89 ± 738.11 | 814.93 ± 450.73 | 50.44 | 0.05 ± 0.02 | 83.12 ± 2.33 | 88.02 ± 12.57 | – | – | – | Tumor mass ([1]; HT29-bearing nude mice, after 3 weeks, mg/kg BW: total saponins 1.5, Compound 1, combination 1 & 19, PTX 20): 1.15 ± 0.52; body weight of BGC823-bearing nude mice ([2]; 0 W, mg/kg BW: total saponins 1.5, Compound 1, combination 1 & 19, 5-FU 20): 20.30 ± 1.06; tumor volume of BGC823-bearing nude mice [2, 13]: 850.16 ± 539.70; body weight of BGC823-bearing nude mice [2, 13]: 21.50 ± 1.18; tumor volume of BGC823-bearing nude mice [2, 14]: 997.88 ± 499.61; body weight of BGC823-bearing nude mice [2, 14]: 22.70 ± 1.16; tumor volume of BGC823-bearing nude mice [2, 15]: 845.04 ± 239.21; body weight of BGC823-bearing nude mice [2, 15]: 23.70 ± 1.06; Inhibition rate ([2]; BGC823-bearing nude mice, after 3 weeks, from average tumor mass vs model): 64.54% and 61.54%; Tumor mass ([2]; BGC823-bearing nude mice, after 3 weeks, mg/kg BW: total saponins 1.5, Compound 1, combination 1 & 19, 5-FU 20): 1.05 ± 0.36; Tumor index ([2]; BGC823-bearing nude mice, after 3 weeks, tumor mass/body weight): 0.04 ± 0.02; tumor volume of HepG2-bearing nude mice ([3]; 1 W, mg/kg BW: total saponins 1.5, Compound 1, combination 1 & 39, Cytoxan 40): 922.51 ± 624.95; tumor volume of HepG2-bearing nude mice ([3]; 2 W, mg/kg BW: total saponins 1.5, Compound 1, combination 1 & 39, Cytoxan 40): 1060.32 ± 570.38; tumor volume of HepG2-bearing nude mice ([3]; 3 W, mg/kg BW: total saponins 1.5, Compound 1, combination 1 & 39, Cytoxan 40): 1033.33 ± 656.54; Inhibition rate ([3]; HepG2-bearing nude mice, after 3 weeks, from average tumor mass vs model): 80.05%; Tumor mass ([3]; HepG2-bearing nude mice, after 3 weeks, mg/kg BW: total saponins 1.5, Compound 1, combination 1 & 39, Cytoxan 40): 0.59 ± 0.29; Tumor index ([3]; HepG2-bearing nude mice, after 3 weeks, tumor mass/body weight): 0.03 ± 0.01
3 | sinocrassuloside VIII [Compound (3)] | – | – | – | – | – | 90.12 ± 7.43 | 68.35 ± 5.37 | 74.35 ± 1.51 | 92.09 ± 1.13 | 56.62 ± 4.24 | –
4 | sinocrassuloside XII [Compound (7)] | – | – | – | – | – | 58.12 ± 6.26 | 55.64 ± 9.88 | 21.83 ± 1.53 | 77.08 ± 5.73 | 62.67 ± 3.12 | –
